Results taken from PubChem BioAssay (NCI).
Values joined by “and” are separate entries in the source; they are usually repeats but may differ in a detail not shown here. Identical values can stand only once.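 Test compounds were applied to cells in 96-well plates for 48 hours at 5 doses. GI50: concentration for 50% inhibition of growth. TGI denotes the concentration required for complete inhibition of growth.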

Assays:
Test in all cases: NCI tumour cell line growth inhibition, 48 h
MDA-N = system: MDA-N
M19-MEL melanoma = system: M19-MEL melanoma
DMS 114 small cell lung = system: DMS 114 small cell lung
KM20L2 colon = system: KM20L2 colon
LXFL 529 NSCLC = system: LXFL 529 NSCLC
DLD-1 colon = system: DLD-1 colon
DMS 273 small cell lung = system: DMS 273 small cell lung
XF 498 CNS = system: XF 498 CNS
RXF-631 renal = system: RXF-631 renal
P388/ADR leukemia = system: P388/ADR leukemia
P388 leukemia = system: P388 leukemia

SMILES: CC1=CC2=C(OCO1)C(=O)c1ccccc1C2=O
- TGI (MDA-N): 1.48 µM
- TGI (M19-MEL melanoma): 3.58 µM
- TGI (DMS 114 small cell lung): 12.1 µM
- TGI (KM20L2 colon): 46.6 µM
- TGI (LXFL 529 NSCLC): 52.8 µM
- TGI (DLD-1 colon): 81.9 µM
- TGI (DMS 273 small cell lung): 26.7 µM

SMILES: O=c1c(O)c(-c2ccc(O)c(O)c2)oc2cc(O)ccc12
- TGI (M19-MEL melanoma): > 88.1 µM
- TGI (DMS 114 small cell lung): 55.1 µM
- TGI (KM20L2 colon): 73.2 µM
- TGI (LXFL 529 NSCLC): > 87.7 µM
- TGI (DLD-1 colon): > 100 µM
- TGI (DMS 273 small cell lung): 28.2 µM
- TGI (XF 498 CNS): 44.1 µM

SMILES: Cc1cc(N(CCC#N)CCC#N)ccc1/C=C1/CN(N2C(=O)/C(=C/c3ccc(N(CCC#N)CCC#N)cc3C)N=C2c2ccccc2)C(c2ccccc2)=N1
- TGI (M19-MEL melanoma): > 100 µM
- TGI (DMS 114 small cell lung): > 100 µM
- TGI (KM20L2 colon): > 100 µM
- TGI (LXFL 529 NSCLC): > 100 µM
- TGI (DLD-1 colon): > 100 µM
- TGI (DMS 273 small cell lung): > 100 µM
- TGI (XF 498 CNS): > 100 µM

SMILES: Nn1c(CCCl)nc2c(Br)cc(Br)cc2c1=O
- TGI (M19-MEL melanoma): > 82 µM
- TGI (DMS 114 small cell lung): 50.5 µM
- TGI (KM20L2 colon): 65.4 µM
- TGI (LXFL 529 NSCLC): 69.3 µM
- TGI (DLD-1 colon): > 79.4 µM
- TGI (DMS 273 small cell lung): > 100 µM
- TGI (XF 498 CNS): 56.1 µM

SMILES: CCOC(=O)C12CCCC1(O)N(NC(=O)c1cccc(Cl)c1)C(C)=C2C(=O)OC (stereo not drawn)
- TGI (M19-MEL melanoma): > 100 µM
- TGI (RXF-631 renal): > 100 µM
- TGI (DMS 114 small cell lung): > 100 µM
- TGI (KM20L2 colon): > 100 µM
- TGI (LXFL 529 NSCLC): > 100 µM
- TGI (DLD-1 colon): > 100 µM
- TGI (DMS 273 small cell lung): > 100 µM
- TGI (XF 498 CNS): > 100 µM

SMILES: NC1=NC(=O)N2CC12 (stereo not drawn)
- TGI (DMS 114 small cell lung): > 100 µM
- TGI (KM20L2 colon): > 100 µM
- TGI (LXFL 529 NSCLC): > 100 µM
- TGI (DLD-1 colon): > 100 µM
- TGI (DMS 273 small cell lung): > 100 µM
- TGI (XF 498 CNS): > 100 µM

SMILES: OCCN1CCN(CCO)Cc2ccccc2OCCOc2ccccc2C1
- TGI (M19-MEL melanoma): > 100 µM
- TGI (RXF-631 renal): > 100 µM
- TGI (DMS 114 small cell lung): > 100 µM
- TGI (KM20L2 colon): > 100 µM
- TGI (LXFL 529 NSCLC): > 100 µM
- TGI (DLD-1 colon): > 100 µM
- TGI (DMS 273 small cell lung): > 100 µM

SMILES: N=c1ccn2c(n1)OC1C(OP(=O)(O)O)C(CO)OC12 (stereo not drawn)
- TGI (MDA-N): > 100 µM

SMILES: CCc1ccccc1NC(=O)/C(CC(=O)c1c(C)n([O-])c2ccccc2[n+]1=O)=N\NS(=O)(=O)c1ccc(C)cc1
- TGI (M19-MEL melanoma): 46.7 µM
- TGI (RXF-631 renal): > 100 µM
- TGI (DMS 114 small cell lung): 30.3 µM
- TGI (KM20L2 colon): > 100 µM
- TGI (LXFL 529 NSCLC): > 100 µM
- TGI (DLD-1 colon): > 100 µM
- TGI (DMS 273 small cell lung): > 100 µM

SMILES: O=C(O)C(=O)Cc1ccc2c(c1)OCO2
- TGI (MDA-N): > 100 µM

SMILES: Cc1cc(Cl)ccc1Nc1sc(C(=O)c2cc3cc(Cl)ccc3o2)c(N)c1C#N
- TGI (MDA-N): > 100 µM

SMILES: O=c1[nH]cnc2c(C3OC(CO)C(O)C3O)[nH]nc12 (stereo not drawn)
- TGI (MDA-N): > 100 µM

SMILES: COc1ccc2[nH]c3c4c(c5cc(C(C)(C)C)ccc5c3c2c1)C(=O)N(c1ccccc1)C4=O
- TGI (M19-MEL melanoma): > 100 µM
- TGI (DMS 114 small cell lung): > 100 µM
- TGI (KM20L2 colon): > 100 µM
- TGI (LXFL 529 NSCLC): > 100 µM
- TGI (DLD-1 colon): 30.3 µM

SMILES: C/C(=N\O)c1sc(-n2nc(-c3ccccc3)cc2-c2ccccc2)nc1C
- TGI (M19-MEL melanoma): 20.8 µM
- TGI (RXF-631 renal): > 31.6 µM
- TGI (DMS 114 small cell lung): 22.8 µM
- TGI (KM20L2 colon): 16.1 µM
- TGI (LXFL 529 NSCLC): 16.3 µM
- TGI (DLD-1 colon): 20.1 µM
- TGI (DMS 273 small cell lung): 49.6 µM

SMILES: CC[C@H](C)c1occ2c(O)c(C(=O)O)c(=O)cc-2c1C
- TGI (MDA-N): > 100 µM

SMILES: CC1(C)CC23C(=O)N(c4ccccc4)C(=Nc4ccccc4)NC2=CC(C#N)=C(C#N)C3O1 (stereo not drawn)
- TGI (M19-MEL melanoma): > 100 µM
- TGI (RXF-631 renal): > 100 µM
- TGI (DMS 114 small cell lung): > 100 µM
- TGI (KM20L2 colon): > 100 µM
- TGI (LXFL 529 NSCLC): > 100 µM
- TGI (DLD-1 colon): > 100 µM
- TGI (XF 498 CNS): > 100 µM

SMILES: CC(=O)CC(=O)N(CCN(C(=O)CC(C)=O)c1ccccc1)c1ccccc1
- TGI (M19-MEL melanoma): > 100 µM
- TGI (DMS 114 small cell lung): > 100 µM
- TGI (KM20L2 colon): > 100 µM
- TGI (LXFL 529 NSCLC): > 100 µM
- TGI (DLD-1 colon): > 100 µM
- TGI (XF 498 CNS): > 100 µM

SMILES: C=C(C)C(=O)NC(N)=NC#N
- GI50 (MDA-N): 96.8 µM
- TGI (MDA-N): 216 µM
- TGI (P388/ADR leukemia): 27.7 µM
- GI50 (M19-MEL melanoma): 42.8 µM
- TGI (M19-MEL melanoma): 50.2 µM and 166 µM
- TGI (DMS 114 small cell lung): > 82.7 µM and 136 µM
- TGI (KM20L2 colon): 232 µM
- TGI (LXFL 529 NSCLC): 191 µM
- GI50 (DLD-1 colon): 111 µM
- TGI (DLD-1 colon): 261 µM
- GI50 (DMS 273 small cell lung): 130 µM
- TGI (DMS 273 small cell lung): 270 µM
- GI50 (XF 498 CNS): 126 µM
- TGI (XF 498 CNS): > 96.6 µM and 303 µM
- TGI (P388 leukemia): 13.9 µM

SMILES: O=C1c2ccccc2C(=O)N1/N=C\c1ccc(Br)cc1
- GI50 (M19-MEL melanoma): > 100 µM
- TGI (M19-MEL melanoma): > 100 µM
- GI50 (RXF-631 renal): > 100 µM
- TGI (RXF-631 renal): > 100 µM
- GI50 (DMS 114 small cell lung): > 100 µM
- TGI (DMS 114 small cell lung): > 100 µM
- GI50 (KM20L2 colon): > 100 µM
- TGI (KM20L2 colon): > 100 µM
- GI50 (LXFL 529 NSCLC): > 100 µM
- TGI (LXFL 529 NSCLC): > 100 µM
- GI50 (DLD-1 colon): > 100 µM
- TGI (DLD-1 colon): > 100 µM
- GI50 (DMS 273 small cell lung): > 100 µM
- TGI (DMS 273 small cell lung): > 100 µM
- GI50 (XF 498 CNS): > 100 µM
- TGI (XF 498 CNS): > 100 µM

SMILES: C=C(C)C1CC=C(C(=O)O)CC1 (stereo not drawn)
- TGI (M19-MEL melanoma): 2970 µM
- TGI (RXF-631 renal): 1620 µM
- TGI (DMS 114 small cell lung): > 5000 µM
- TGI (KM20L2 colon): > 5000 µM
- TGI (LXFL 529 NSCLC): > 5000 µM
- TGI (DLD-1 colon): > 5000 µM
- TGI (DMS 273 small cell lung): > 5000 µM

SMILES: COc1cc(C(=O)C/C(CCC(=O)Nc2ccccc2[N+](=O)[O-])=N\NC(=O)C(N)=O)ccc1O
- TGI (M19-MEL melanoma): > 100 µM
- TGI (RXF-631 renal): > 100 µM
- TGI (DMS 114 small cell lung): > 100 µM
- TGI (KM20L2 colon): > 100 µM
- TGI (LXFL 529 NSCLC): > 100 µM
- TGI (DLD-1 colon): > 100 µM
- TGI (DMS 273 small cell lung): > 100 µM

SMILES: CCCCCCCCCOC(=S)NC
- TGI (M19-MEL melanoma): 53.9 µM
- TGI (RXF-631 renal): 49.5 µM
- TGI (KM20L2 colon): 32.5 µM
- TGI (LXFL 529 NSCLC): 34.8 µM
- TGI (DLD-1 colon): 34.9 µM
- TGI (DMS 273 small cell lung): 33.6 µM
- TGI (XF 498 CNS): 35.3 µM

SMILES: O=S(=O)(/C=C/C=C/S(=O)(=O)c1ccccc1)c1ccccc1
- GI50 (MDA-N): 1.4 µM
- TGI (MDA-N): 2.88 µM and 7.28 µM

SMILES: CC(C)C1C(=O)N2CCCC2C2(O)OC(NC(=O)C3C=C4c5cccc6[nH]cc(c56)CC4N(C)C3)(C(C)C)C(=O)N12 (stereo not drawn)
- TGI (MDA-N): 67.5 µM

SMILES: CN(C)CC/C=C1\c2ccccc2Sc2ccc(Cl)cc21
- TGI (MDA-N): 26.1 µM

SMILES: CON(C)C(=O)C(Cc1ccccc1)NC(=O)OC(C)(C)C (stereo not drawn)
- TGI (MDA-N): > 100 µM
